Converted amounts (≈) assume the structure as drawn.

In this experiment the test system is Mycobacterium tuberculosis variant bovis. Put plainly: Antimycobacterial activity against Mycobacterium bovis. It is filed as functional.
For orientation: MIC means the lowest concentration found to suppress growth. A low value points to a more susceptible organism. Consider `CC(C)COC(=O)C1C(=O)Oc2ccccc2C1C(=O)NC1CCCCC1` (stereo not drawn), for which 15.6 µg/mL (≈ 41.8 µM) was the least that counted as inhibitory (MIC).
Then `O=C(OCc1ccc(F)cc1)C1C(=O)Oc2ccc(Br)cc2C1C(=O)NC1CCCCC1` (stereo not drawn), with 15.6 µg/mL (≈ 30.9 µM); and `COC(=O)C1C(=O)Oc2ccc(Br)cc2C1C(=O)NC1CCCCC1` (stereo not drawn), with 15.6 µg/mL (≈ 38 µM).

The values above are taken from ChEMBL document CHEMBL3588753, “Recent progress in the drug development of coumarin derivatives as potent antituberculosis agents” (2015).
